Values joined by “and” are separate entries in the source; they are usually repeats but may differ in a detail not shown here. Identical values can stand only once.
Legend:
L6 muscle cells = assay: Total glucose uptake in L6 muscle cells (2-NBDG fluorescence); assay type: cell-based; conditions: 2 hrs treatment
Experimental: Total glucose uptake was measure using fluorescent analog of glucose, 2-NBDG (2-(N-(7-nitrobenz-2-oxa-1,3-diazol-4-yl)amino)-2-deoxyglucose) from Molecular Probes Inc. L6 myoblastic cells were treated for 2 hrs with tested compounds in culture medium SkBM from Clonetics. After washing, cells were transferred to HBSA (Hepes-buffered Saline), pH 7.0 with 50 mcM of 2-NBDG without glucose. One minute later, cells were washed with ice-cold PBS, and fixed in −20 C 70% ethanol. Fluorescence was measured at 480/530 (excitation/emission).

[1] = system: Streptozocin-induced insulin deficient rats; assay: Fasted blood glucose in streptozocin-induced insulin deficient rats, chromium compounds in drinking water for four weeks; assay type: in vivo; conditions: for Fasted Blood Glucose (fold increase over four weeks): drinking water, about 42 μg/kg, four hrs fasting
Experimental: In vivo experiments gave much more dramatic differences, which are summarized in Table 1 below in which the increase in fasting blood glucose was measured after four weeks as compared to untreated animals: Streptozocin-induced insulin deficient rats were used to evaluate the insulin potentiating activity of several compounds. […] As consequence, these rats develop severe hyperglycemia. So far, certain known chromium compounds were known to potentiate action of insulin, however, the actual mechanism was not clearly understood. […] In our studies in vivo, chromium compounds were provided in drinking water for four weeks at a concentration of about 42 μg/kg. Vein blood was collected following four hrs fasting and used for fasted blood glucose level test. The study results for two tests are given below in Table 3 in which the increase in blood glucose in given as a fold increase over four weeks.

Molecule | Fold over Control, Average (L6 muscle cells; Conc. 10 nM) [fold] | Fold over Control, Average (L6 muscle cells; Conc. 100 nM) [fold] | Fold over Control, Average (L6 muscle cells; Conc. 1000 nM) [fold] | Fasted Blood Glucose (fold increase over four weeks) ([1]; STUDY 1) [fold] | also measured
O.O.O.O.O.O.[Cl][Cr]([Cl])[Cl] [CrCl3, CrCl3 hexahydrate, reference compound] | 1.55 | 2.05 | 2.08 | 1.32 | 
CN(C)C(=N)N=C(N)N [Metformin, reference compound] |  |  |  | 0.96 | 
Chromium-mono-Aminooxyacetate [CROA-1] | 1.72 | 2.36 | 2.39 |  | Fold over Control (single values) (L6 muscle cells; Conc. 10 nM): 1.41 fold and 1.66 fold and 2.10 fold; Fold over Control (single values) (L6 muscle cells; Conc. 100 nM): 2.12 fold and 2.16 fold and 2.80 fold; Fold over Control (single values) (L6 muscle cells; Conc. 1000 nM): 2.58 fold and 2.10 fold and 2.50 fold
chromium niacin [CrNiacin, reference compound] |  |  |  | 1.91 | 
chromium picolinate [Cr-picolinate, reference compound] |  |  |  | 2.02 | Fasted Blood Glucose (fold increase over four weeks) ([1]; STUDY 2): 2.37 fold; BLOOD GLUCOSE INCREASE (% of untreated) ([1]; diabetic rats, after four weeks, untreated = 100%): 95.56%; BLOOD GLUCOSE INCREASE ([1]; diabetic rats, increase in fasting blood glucose after four weeks): 2.37
